Bounds are passed on as bounds.

A word on the IC50: it is the concentration that inhibits the measured activity by half. Low values mean greater potency in that assay, high ones weaker potency in that assay. In general, microsomal CLint refers to the rate of metabolic loss divided by the concentration. Lower therefore signals greater metabolic stability. A word on the efflux ratio: it is the permeability from basolateral to apical divided by that in the opposite direction, in the common usage.

Series [1] has as its target ATM in SN38 treated HT-29 cells (Homo sapiens (Human), UniProt Q13315). Briefly: ATM SN-38 HT-29 cellular potency assay.
Method: Inhibition of ATM was evaluated in SN38 treated HT-29 cells (ATCC, Cat #HTB-38) by high-Content Imaging System
HT-29 cells were trypsinized and approximately 10,000 cells were seeded per well to 96-well microplates which were incubated overnight at 37° C. and 5% CO2. Test compounds were added to the 96-well plates which were incubated at 37° C. and 5% CO2 for 1 hour. […] After the plates were rinsed 3 times with PBSA, 50 μl permeabilization buffer (0.1% Triton-X 100 in PBSA) was added and the plates were incubated for 20 minutes at room temperature. After the plates were rinsed once with PBSA, 50 μl primary antibody solution was added and the plates were incubated in at 4° C. overnight. […] The plates were rinsed with PBST 3 times and then 100 μl PBSA were added per well. The plates were sealed with black plate seals.
The next series deals with PIK3Cβ (p110β) (Homo sapiens (Human), UniProt P42338). Kind of series: PI3K biochemical potency assay (PI3Kβ). As to the method:
(§1) PI3Kα (p110α/p85a), PIK3C δ, PIK3Cβ (p110β), PIK3Cγ (pp110γ) kinase reaction solutions of PI3Kα (Invitrogen, Cat. No. PV4788), PIK3Cδ (Invitrogen, Cat. No. PV6452), PIK3Cβ (Millipore, Cat. No. 14-603-K), PIK3Cγ (Invitrogen, Cat. No. PR8641C) enzymes were prepared in 1× kinase buffer at 4-fold of the final concentration (final concentration: PI3Kα 0.7 nM, PIK3Cδ 3 nM, PIK3Cβ 4.8 nM, PIK3Cγ 11 nM) of each reagent in the assay. 2.5 μl of kinase solution was added to each well of the 384-well assay plate, which contains 2.5 μl of compounds with serially diluted concentration. 2× substrate solution was prepared with PIP2 substrate and ATP in 1× kinase reaction buffer at 2-fold of the final concentration of each reagent in the assay. 5 μl of substrate solution was added to each well of the assay plate to start reaction. The assay plate was incubated at room temperature for 1 hour. 5 μl reaction mix was transferred to a new 384 well plate. 5 μl of ADP-Glo reagent (Promega, Cat. No. v9102/3, Lot. No. 0000176563) was added to each well of the new assay plate to stop the reaction. The plate was shaken slowly and equilibrated for 40 minutes. 10 μl kinase detection reagents was added to each well, which was equilibrated for 60 minutes before read on a plate reader (Envision) for luminescence.

For a further series, the target named is PIK3Cδ (Homo sapiens (Human), UniProt O00329). Briefly: PI3K biochemical potency assay (PI3Kδ). Here is the method: as §1
The next series deals with PIK3Cγ (pp110γ) (Homo sapiens (Human), UniProt P48736). Briefly: PI3K biochemical potency assay (PI3Kγ). Here is the method:
as §1

The target of a further series is ATM (Homo sapiens (Human), UniProt Q13315). Kind of series: ATM biochemical potency assay. Here is the method: The plate was incubated at room temperature for 10 minutes. […] Data was collected by Caliper.
The target of a further series is PI3Kα (p110α/p85a) (Homo sapiens (Human), UniProt P42336). Briefly: PI3K biochemical potency assay (PI3Kα). Here is the method: as §1
Another series concerns the target mTOR (Homo sapiens (Human), UniProt P42345). Kind of series: mTOR biochemical potency assay. Here is the method: Solution of mTOR enzymes (Millipore, Cat. No. 14-770, Lot. No. 2052551) was prepared in 1× kinase buffer at 4-fold of the final concentration (final concentration: 6 nM) in the assay. 2.5 μl of kinase solution was added to each well of the 384-well assay plate, which contains 2.5 μl of compounds with serially diluted concentration. 2× substrate solution was prepared with ULight-4E-BP1 (Thr37/46) Peptide (PE, Cat. No. TRF0128-M, Lot. No. 1695274) and ATP in 1× kinase reaction buffer at 2-fold of the final concentration of each reagent in the assay. 5 μl of substrate solution was added to each well of the assay plate to start reaction. The assay plate was incubated at room temperature for 30 minutes. Detection solution of kinase quench buffer (EDTA) and Eu-anti-phospho-4E-BP1 antibody (Thr37/46) (PE, Cat. No. TRF0216-M, Lot. No. 1571838) were prepared at 2-fold the desired final concentrations of each reagent in Lance detection buffer. 10 μl of detection solution buffer was added to each well of the assay plate. The assay plate was equilibrated for 60 minutes at room temperature before read on a plate reader (Lance signal (665 nm) from Envision program).

For another series, the target named is ATR (Homo sapiens (Human), UniProt Q13535). Briefly: ATR biochemical potency assay. Here is the method: ATR enzyme was made by ChemPartner (batch: CP-ATR-20161102-M2). 2× enzyme solutions were prepared in 1× kinase base buffer. 10 μl of 2× enzyme solution (final concentration: 2.5 nM) was added to each well of the 384-well assay plate containing 60 nl compound in each well. The plate was incubated at room temperature for 10 minutes. 2× peptide solutions were prepared with FAM-labeled peptide and ATP in the 1× kinase base buffer. 10 μl of 2× peptide solution was added to each well of the 384-well assay plate, which was incubated at 28° C. for 240 min. 40 μl of stop buffer was added to stop reaction. Data were collected by Caliper.

The target of a further series is hERG channel (Homo sapiens (Human), UniProt Q12809). Briefly: hERG safety assessment, manual patch clamp. As to conditions: for hERG inhibition @10 μM: HEK 293 cells stably expressing hERG. A general note: The hERG channel carries a current that helps repolarise heart muscle cells.
Another series deals with P-glycoprotein (Pgp) (Homo sapiens (Human), UniProt P08183). Briefly: MDCK-MDR1 Pgp assessment.
For series [2] the following is noted: cited from earlier work; for clearance as % liver blood flow: humans.
The target in series [3] is T1, aldehyde oxidase (AO) (Homo sapiens (Human), UniProt Q06278). Kind of series: in vitro. Conditions: human liver cytosol.
For series [4], the target named is T1, aldehyde oxidase (AO). Kind of series: Aldehyde oxidase assay in human liver cytosol. As to conditions: human liver cytosol 1 mg/mL, 0.5 μM compound.
Another series has as its target BCRP (Homo sapiens (Human), UniProt Q9UNQ0). Briefly: Caco-2 BCRP assessment. Format: in vitro ADME. As to conditions: −inhibitor/+inhibitor (novobiocin 30 μM). An excerpt:
Caco-2 cells was used to study efflux transport mediated by BCRP.

Sequence of PIK3Cδ (O00329 whole entry, looked up): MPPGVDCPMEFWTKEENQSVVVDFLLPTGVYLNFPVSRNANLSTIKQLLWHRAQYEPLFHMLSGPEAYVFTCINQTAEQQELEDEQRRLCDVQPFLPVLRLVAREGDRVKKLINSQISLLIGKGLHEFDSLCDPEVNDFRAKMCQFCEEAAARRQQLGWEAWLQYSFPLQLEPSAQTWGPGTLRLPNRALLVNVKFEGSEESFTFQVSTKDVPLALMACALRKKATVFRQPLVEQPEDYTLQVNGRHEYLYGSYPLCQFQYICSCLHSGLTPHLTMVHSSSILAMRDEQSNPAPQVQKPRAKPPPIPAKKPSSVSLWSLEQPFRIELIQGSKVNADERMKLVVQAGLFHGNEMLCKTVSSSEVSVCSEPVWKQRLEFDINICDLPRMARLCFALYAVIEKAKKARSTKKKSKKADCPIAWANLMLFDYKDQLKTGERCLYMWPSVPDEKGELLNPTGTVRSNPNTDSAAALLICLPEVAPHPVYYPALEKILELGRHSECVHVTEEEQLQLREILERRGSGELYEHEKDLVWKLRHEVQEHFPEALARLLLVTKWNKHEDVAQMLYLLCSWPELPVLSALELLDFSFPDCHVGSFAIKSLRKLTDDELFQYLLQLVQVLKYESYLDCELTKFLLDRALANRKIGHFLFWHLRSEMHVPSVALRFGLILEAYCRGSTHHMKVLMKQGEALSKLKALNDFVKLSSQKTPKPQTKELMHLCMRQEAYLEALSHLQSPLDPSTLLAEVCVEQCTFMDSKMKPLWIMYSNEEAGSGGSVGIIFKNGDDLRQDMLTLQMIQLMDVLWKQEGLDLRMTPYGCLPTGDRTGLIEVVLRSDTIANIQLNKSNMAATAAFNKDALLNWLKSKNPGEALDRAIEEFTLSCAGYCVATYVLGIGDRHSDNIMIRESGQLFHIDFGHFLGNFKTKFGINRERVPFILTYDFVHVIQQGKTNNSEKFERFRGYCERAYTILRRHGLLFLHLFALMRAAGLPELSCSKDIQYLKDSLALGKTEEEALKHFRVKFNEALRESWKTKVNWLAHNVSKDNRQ
Sequence of PIK3Cδ (P27986 whole entry partner, looked up): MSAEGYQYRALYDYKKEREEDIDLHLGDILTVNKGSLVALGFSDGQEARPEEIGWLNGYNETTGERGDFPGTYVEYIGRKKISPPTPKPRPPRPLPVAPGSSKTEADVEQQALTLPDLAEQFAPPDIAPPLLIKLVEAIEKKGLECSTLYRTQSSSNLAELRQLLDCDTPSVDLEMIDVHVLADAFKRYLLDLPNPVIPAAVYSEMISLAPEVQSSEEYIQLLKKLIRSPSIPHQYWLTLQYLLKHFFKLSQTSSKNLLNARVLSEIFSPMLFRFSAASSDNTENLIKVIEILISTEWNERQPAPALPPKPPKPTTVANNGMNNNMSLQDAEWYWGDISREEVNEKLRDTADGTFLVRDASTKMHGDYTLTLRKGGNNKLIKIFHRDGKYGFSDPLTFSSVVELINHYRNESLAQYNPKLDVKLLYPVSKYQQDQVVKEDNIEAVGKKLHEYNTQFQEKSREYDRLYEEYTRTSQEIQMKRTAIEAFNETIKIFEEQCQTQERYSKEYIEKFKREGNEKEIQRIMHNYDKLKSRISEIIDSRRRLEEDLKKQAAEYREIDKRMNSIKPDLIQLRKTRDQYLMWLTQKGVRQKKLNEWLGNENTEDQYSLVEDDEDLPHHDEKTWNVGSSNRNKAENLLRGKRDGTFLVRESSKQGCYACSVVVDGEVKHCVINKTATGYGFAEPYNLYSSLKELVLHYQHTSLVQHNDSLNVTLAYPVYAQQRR
Sequence of PI3Kα (p110α/p85a) (P42336 whole entry, looked up): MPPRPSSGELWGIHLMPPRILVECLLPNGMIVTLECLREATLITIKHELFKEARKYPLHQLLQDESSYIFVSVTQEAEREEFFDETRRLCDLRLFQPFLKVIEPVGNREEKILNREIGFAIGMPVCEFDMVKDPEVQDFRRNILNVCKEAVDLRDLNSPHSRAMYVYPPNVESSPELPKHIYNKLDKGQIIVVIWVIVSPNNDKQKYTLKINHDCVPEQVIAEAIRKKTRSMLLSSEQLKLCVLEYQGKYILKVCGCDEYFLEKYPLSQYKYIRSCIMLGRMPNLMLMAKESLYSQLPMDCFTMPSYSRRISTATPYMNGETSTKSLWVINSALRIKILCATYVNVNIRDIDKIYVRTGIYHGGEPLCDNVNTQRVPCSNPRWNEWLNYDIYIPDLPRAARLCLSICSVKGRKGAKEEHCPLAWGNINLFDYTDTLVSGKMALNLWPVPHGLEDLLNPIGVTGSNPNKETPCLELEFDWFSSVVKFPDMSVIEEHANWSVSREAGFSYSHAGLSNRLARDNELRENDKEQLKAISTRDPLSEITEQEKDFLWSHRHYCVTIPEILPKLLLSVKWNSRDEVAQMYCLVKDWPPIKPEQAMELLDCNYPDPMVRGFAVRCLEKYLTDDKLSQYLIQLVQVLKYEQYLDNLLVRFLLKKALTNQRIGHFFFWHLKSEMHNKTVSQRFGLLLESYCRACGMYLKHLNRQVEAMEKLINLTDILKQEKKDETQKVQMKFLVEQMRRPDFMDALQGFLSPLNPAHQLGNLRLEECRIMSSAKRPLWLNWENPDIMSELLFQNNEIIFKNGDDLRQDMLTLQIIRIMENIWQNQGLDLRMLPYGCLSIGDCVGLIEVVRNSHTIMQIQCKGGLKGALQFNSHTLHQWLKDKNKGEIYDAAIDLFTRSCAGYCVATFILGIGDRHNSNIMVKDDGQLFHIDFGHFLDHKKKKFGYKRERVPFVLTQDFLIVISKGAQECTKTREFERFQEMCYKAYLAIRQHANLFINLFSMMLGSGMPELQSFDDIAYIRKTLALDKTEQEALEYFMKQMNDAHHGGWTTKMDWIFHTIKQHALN
Sequence of PI3Kα (p110α/p85a) (P27986 whole entry partner, looked up): as the sequence (P27986 whole entry partner, looked up) above
Sequence of hERG channel (Q12809 whole entry): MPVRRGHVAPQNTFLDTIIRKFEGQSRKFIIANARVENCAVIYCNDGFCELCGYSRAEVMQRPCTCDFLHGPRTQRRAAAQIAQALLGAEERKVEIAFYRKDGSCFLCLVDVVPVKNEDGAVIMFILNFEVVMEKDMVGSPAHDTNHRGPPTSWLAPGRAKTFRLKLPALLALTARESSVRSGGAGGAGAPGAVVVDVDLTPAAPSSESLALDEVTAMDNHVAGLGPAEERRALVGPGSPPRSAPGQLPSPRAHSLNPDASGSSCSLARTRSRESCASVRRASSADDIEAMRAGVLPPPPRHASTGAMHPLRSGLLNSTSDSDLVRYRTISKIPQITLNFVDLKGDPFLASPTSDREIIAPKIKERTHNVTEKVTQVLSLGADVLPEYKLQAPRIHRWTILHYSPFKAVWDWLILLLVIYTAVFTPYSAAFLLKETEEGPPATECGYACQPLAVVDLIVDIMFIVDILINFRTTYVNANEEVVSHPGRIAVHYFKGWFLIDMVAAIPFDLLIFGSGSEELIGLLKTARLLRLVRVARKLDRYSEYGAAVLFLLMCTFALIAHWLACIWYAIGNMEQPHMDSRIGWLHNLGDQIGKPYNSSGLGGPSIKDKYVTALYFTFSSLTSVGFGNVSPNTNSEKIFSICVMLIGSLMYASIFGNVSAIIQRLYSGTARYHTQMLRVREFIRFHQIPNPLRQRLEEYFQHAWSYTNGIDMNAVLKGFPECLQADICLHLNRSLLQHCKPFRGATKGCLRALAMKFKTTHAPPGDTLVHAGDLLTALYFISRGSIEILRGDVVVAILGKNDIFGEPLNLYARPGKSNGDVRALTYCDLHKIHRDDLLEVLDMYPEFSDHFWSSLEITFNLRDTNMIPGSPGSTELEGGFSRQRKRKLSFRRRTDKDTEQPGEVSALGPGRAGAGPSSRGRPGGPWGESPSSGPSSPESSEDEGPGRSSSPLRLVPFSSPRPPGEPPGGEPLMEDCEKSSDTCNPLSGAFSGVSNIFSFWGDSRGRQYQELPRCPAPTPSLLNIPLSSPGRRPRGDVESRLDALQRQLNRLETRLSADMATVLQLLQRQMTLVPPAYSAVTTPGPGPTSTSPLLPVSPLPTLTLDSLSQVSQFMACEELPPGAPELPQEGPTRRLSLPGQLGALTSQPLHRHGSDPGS
Sequence of BCRP (Q9UNQ0 whole entry): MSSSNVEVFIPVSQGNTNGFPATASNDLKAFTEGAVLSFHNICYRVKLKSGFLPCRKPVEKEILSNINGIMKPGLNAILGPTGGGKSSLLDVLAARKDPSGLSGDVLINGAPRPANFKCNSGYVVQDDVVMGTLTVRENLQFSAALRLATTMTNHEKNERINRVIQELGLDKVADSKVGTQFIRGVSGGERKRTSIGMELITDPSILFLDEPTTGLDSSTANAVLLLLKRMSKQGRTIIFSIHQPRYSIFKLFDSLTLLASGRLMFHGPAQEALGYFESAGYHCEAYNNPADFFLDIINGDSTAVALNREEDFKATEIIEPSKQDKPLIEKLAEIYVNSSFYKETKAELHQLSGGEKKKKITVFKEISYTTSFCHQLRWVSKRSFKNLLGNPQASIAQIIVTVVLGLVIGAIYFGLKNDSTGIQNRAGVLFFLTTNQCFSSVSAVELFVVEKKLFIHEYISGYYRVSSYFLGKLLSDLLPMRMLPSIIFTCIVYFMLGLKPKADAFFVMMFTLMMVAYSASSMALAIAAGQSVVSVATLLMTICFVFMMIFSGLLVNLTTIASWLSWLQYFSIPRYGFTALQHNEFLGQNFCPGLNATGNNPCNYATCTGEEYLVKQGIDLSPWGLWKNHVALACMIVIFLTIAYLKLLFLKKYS
Method for P-glycoprotein (Pgp): Efflux transport mediated by P-glycoprotein (Pgp) was assessed by MDCK-MDR1 cells. The final concentrations of test compounds and control compound were at 1 μM. The multiwell insert plate was incubated at 37° C. for 2 hours.
Method for hERG channel: Inhibition of hERG channel was conducted in HEK 293 cell line stably expressing hERG channel by manual patch clamp.

With `CC(C)n1c(=O)n(C)c2nnc3cc(F)c(-c4ccc(OCCCN5CCCC5)nc4)cc3c21` [Example 3, 7-fluoro-1-isopropyl-3-methyl-8-(6-(3-(pyrrolidin-1-yl)propoxy)pyridin-3-yl)-1H-imidazo[4,5-c]cinnolin-2(3H)-one], the IC50 in [1] was 0.011 µM; on PIK3Cβ (p110β) it was above 10 µM; at PIK3Cδ, above 10 µM; at PIK3Cγ (pp110γ) it was above 10 µM; against ATM, 0.0048 µM; against PI3Kα (p110α/p85a), above 10 µM. Also, the IC50 against mTOR and against ATR was above 10 µM throughout.

Regarding `CC(C)n1c(=O)n(C)c2nnc3cc(F)c(-c4ccc(COCCN(C)C)nc4)cc3c21` [Example 6, 8-(6-((2-(dimethylamino)ethoxy)methyl)pyridin-3-yl)-7-fluoro-1-isopropyl-3-methyl-1H-imidazo[4,5-c]cinnolin-2(3H)-one], the IC50 in [1] was 0.071 µM; at PIK3Cβ (p110β), above 10 µM; against PIK3Cδ it was above 10 µM; on PIK3Cγ (pp110γ), above 10 µM; at ATM, 0.1 µM; against PI3Kα (p110α/p85a), above 10 µM. Besides, the IC50 against mTOR and against ATR was above 10 µM in each case.

In the case of `CC(C)n1c(=O)n(C)c2nnc3cc(F)c(-c4ccc(COCCN5CCCCC5)nc4)cc3c21` [Example 7, 7-fluoro-1-isopropyl-3-methyl-8-(6-((2-(piperidin-1-yl)ethoxy)methyl)pyridin-3-yl)-1H-imidazo[4,5-c]cinnolin-2(3H)-one], the concentration for half-maximal inhibition (IC50) in series [1] is 0.274 µM; against PIK3Cβ (p110β), above 10 µM; on PIK3Cδ it was above 10 µM; against PIK3Cγ (pp110γ) it was above 10 µM; against ATM, 0.026 µM; against PI3Kα (p110α/p85a), above 10 µM. Moreover, the 50% inhibitory concentration (IC50) against mTOR and on ATR was above 10 µM throughout.

For the compound `CC(C)n1c(=O)n(C)c2nnc3cc(F)c(-c4ccc(COCCN5CC6CC6C5)nc4)cc3c21` (stereo not shown) [Example 11, 8-(6-((2-(3-azabicyclo[3.1.0]hexan-3-yl)ethoxy)methyl)pyridin-3-yl)-7-fluoro-1-isopropyl-3-methyl-1H-imidazo[4,5-c]cinnolin-2(3H)-one], the IC50 in series [1] is 0.018 µM; at PIK3Cβ (p110β), above 10 µM; against PIK3Cδ, above 10 µM; at PIK3Cγ (pp110γ) it was above 10 µM; on ATM it was 0.037 µM; against PI3Kα (p110α/p85a), above 10 µM. Moreover, the IC50 against mTOR and on ATR was above 10 µM in each case.

Take `CC(C)n1c(=O)n(C)c2nnc3cc(F)c(-c4ccc(OCCCN5CCC(F)CC5)nc4)cc3c21` [Example 13, 7-fluoro-8-(6-(3-(4-fluoropiperidin-1-yl)propoxy)pyridin-3-yl)-1-isopropyl-3-methyl-1H-imidazo[4,5-c]cinnolin-2(3H)-one]: the IC50 was 0.027 µM in series [1]; above 10 µM against PIK3Cβ (p110β); above 10 µM against PIK3Cδ; above 10 µM on PIK3Cγ (pp110γ); above 1 µM at ATM; above 10 µM at PI3Kα (p110α/p85a). Also, the IC50 at mTOR and against ATR was above 10 µM each time.

On to `CC(C)n1c(=O)n(C)c2nnc3cc(F)c(-c4ccc(OCCCN5CC6CC6C5)nc4)cc3c21` (stereo not shown) [Example 16, 8-(6-(3-(3-azabicyclo[3.1.0]hexan-3-yl)propoxy)pyridin-3-yl)-7-fluoro-1-isopropyl-3-methyl-1H-imidazo[4,5-c]cinnolin-2(3H)-one], for which the IC50 in series [1] is 0.0185 µM; at PIK3Cβ (p110β), above 10 µM; at PIK3Cδ, above 10 µM; on PIK3Cγ (pp110γ), above 10 µM; against ATM, above 1 µM; against PI3Kα (p110α/p85a), above 10 µM. The IC50 at mTOR and at ATR was above 10 µM throughout.

Regarding `CC(C)n1c(=O)n(C)c2cnc3cc(F)c(-c4ccc(OCCCN5CCCCC5)nc4)cc3c21` [Ref. Comp. 3, AZD1390], at hERG channel, the “hERG liability (in words)” value is on record as “significant hERG inhibition” and the “hERG inhibition @10 μM” value worked out at 79%. Further, at P-glycoprotein (Pgp), the “Pgp substrate (in words)” value is reported as “not a Pgp substrate”.

Consider `CCN(C(C)=O)c1cccc(-c2ccnc3c(C#N)cnn23)c1` [Ref. Comp. 4, N-[3-(3-cyanopyrazolo[1,5-a]pyrimidin-7-yl)phenyl]-N-ethylacetamide], for which, in [2], the “clearance as % liver blood flow” value was around 80 % liver blood flow. The compound further displayed an intrinsic metabolic clearance (microsomal CLint) at 0.5 μM at aldehyde oxidase (AO) [3] of 3.1 µL/min/mg. The AO intrinsic clearance at aldehyde oxidase (AO) [4] was found to be 3.1 μL/min/mg protein.

For `OCCn1cc(-c2cnc3nnn(Cc4ccc5ncccc5c4)c3n2)cn1` [Ref. Comp. 5, 2-[4-[3-(quinolin-6-ylmethyl)triazolo[4,5-b]pyrazin-5-yl]pyrazol-1-yl]ethanol], in [2], the clearance in humans is listed as 6 mL/min/kg and the “clearance as % liver blood flow” value is reported as around 30 % liver blood flow.

As to `CN(C)CCCOc1ccc(-c2ccc3nnc4c(c3c2)n(C2CCOCC2)c(=O)n4C)cn1` [compound 1, 8-[6-(3-dimethylamino-propoxy)-pyridin-3-yl]-3-methyl-1-(tetrahydro-2H-pyran-4-yl)-1H-imidazo[4,5-c]cinnolin-2(3H)-one], the 50% inhibitory concentration (IC50) is 0.112 µM in series [1] and 0.0029 µM at ATM. The “hERG inhibition @10 μM” value on hERG channel was 58%. Besides, the efflux ratio at 2 h, 1 μM was 0.62 at BCRP and 5.6 at P-glycoprotein (Pgp) (human).

These data come from patent publication US12226414B2, “1-isopropyl-3-methyl-8-(pyridin-3-yl)-1,3-dihydro-2H-imidazo[4,5-c] cinnolin-2-one as selective modulators of ataxia telangiectasia mutated (ATM) kinase and uses thereof” (SUZHOU ZANRONG PHARMA LIMITED, priority 2018, dated 2025).
